Values joined by “and” are separate entries in the source; they are usually repeats but may differ in a detail not shown here. Equal values may be shown once.
Test system: HCC1806 breast cancer cells
Experiment: MTT proliferation assay on HCC1806 cells
Format: cell-based, human
Procedure: HCC 1806—Primary Acantholytic Squamous Cell Carcinoma
(Colorimetric assays using the tetrazolium salt thiazolyl blue, also termed MTT, after methyl-thiazolyl-tetrazolium)
Around 1500 cells are in placed in each well in 96 well plates, 10 extracts (tested 2 concentrations each, 0.007 mg/ml and 0.015 μg/μl) were added to separate wells. Untreated cells and DMSO-treated cells were used as controls in separate wells. Experiments were performed in triplicate. A total number of 9×10^4 cells are required at each concentration. The well plates were purchased from Sigma Aldrich.
Mix cells and medium nicely, add 150 μl per well, plate eight 96-well plates for each experiment.
Place 96-well plates in a 37° C. incubator with 5% CO2. After 24 hours, the medium was changed to the medium containing extracts.
The MTT assay was performed from Day 0 to Day 7 by adding 15 μl MTT labeling reagent into each well and incubated at 37° C. for 4 hours. Thereafter, 150 μl solubilization solution was added into each well and incubated overnight in the 37° C. incubator with 5% CO2.
3-(4,5-Dimethylthiazol-2-yl)-2,5-diphenyltetrazolium bromide assays were performed using the Cell Proliferation Kit I (Roche Diagnostics GmbH) as the manufacturer's instructions. The absorbance of the samples was measured at 595 nm using a microtiter plate reader (FLUOstar Omega, BMG LABTECH). The experiments were done in triplicate.

SMILES	effectiveness of pure cannabinoid on HCC1806 cancer cells (20 μM (0.0063 μg/μl))	effective (active) concentration on HCC1806 cancer cells (pure cannabinoid)	effective concentration on HCC1806 cancer cells, converted (pure cannabinoid, conversion of 15 μM)
CCCCCc1cc(O)c2c(c1)OC(C)(C)[C@@H]1CCC(C)=C[C@@H]21 [THC, tetrahydrocannabinol]	only marginally and insignificantly effective	–	–
C=C(C)[C@@H]1CCC(C)=C[C@H]1c1c(O)cc(CCCCC)cc1O [CBD, cannabidiol]	–	15 to 20 µM and 15 µM	0.0047 µg/µL

Reference: patent publication US20200197461A1, “NOVEL CANNABIS SATIVA LINES AND EXTRACTS WITH ANTI-CANCER PROPERTIES” (Pathway RX Inc., priority 2018, published 2020)
